Our source for the inhibition and IC50 values is US10167296B2, “Sulfoximine substituted quinazolines for pharmaceutical compositions” (EVOTEC INTERNATIONAL GMBH, priority 2014, dated 2019).

As a reminder, the IC50 is the point on the concentration scale where inhibition reaches its midpoint.

Assay [1] has as its target MNK1a (pre-activated GST-MNK1a) (Homo sapiens (Human), UniProt Q9BUB5). Description: MNK1 in vitro kinase assay (assay 2), Z'-LYTE. The format is biochemical. The conditions noted are these: for inhibition at 1 µM: compound concentration of 1 μM, read-out: Mnk1 % Inh. From the text:
B. MNK1 In Vitro Kinase Assay (Assay 2)
MNK1 Data can be obtained from the MNK1 Z′-LYTE® assay. The MNK1 Z′-LYTE® screening protocol and assay conditions are also described on www.invitrogen.com.
The assay is described as follows:
The Z′-LYTE® biochemical assay employs a fluorescence-based, coupled-enzyme format and is based on the differential sensitivity of phosphorylated and non-phosphorylated peptides to proteolytic cleavage. The peptide substrate is labeled with two fluorophores—one at each end—that make up a FRET pair.
In the primary reaction, the kinase transfers the gamma-phosphate of ATP to a single tyrosine, serine or threonine residue in a synthetic FRET-peptide. In the secondary reaction, a site-specific protease recognizes and cleaves non-phosphorylated FRET-peptides. Phosphorylation of FRET-peptides suppresses cleavage by the Development Reagent. Cleavage disrupts FRET between the donor (i.e., coumarin) and acceptor (i.e., fluorescein) fluorophores on the FRET-peptide, whereas uncleaved, phosphorylated FRET-peptides maintain FRET. A ratiometric method, which calculates the ratio (the Emission Ratio) of donor emission to acceptor emission after excitation of the donor fluorophore at 400 nm, is used to quantitate reaction progress, as shown in the equation below. Emission Ratio=Coumarin Emission(445 nm)/Fluorescein Emission(520 nm)
The inhibition of kinase activity of MNK1a was assessed using pre-activated GST-MNK1a. The 2×MKNK1 (MNK1) mixture is prepared in 50 mM HEPES pH 7.5, 0.01% BRIJ-35, 10 mM MgCl2, 4 mM MnCl2, 1 mM EGTA, 2 mM DTT. The final 10 μL Kinase Reaction consists of 13.5-54 ng MKNK1 (MNK1) and 2 μM Ser/Thr 07 in 50 mM HEPES pH 7.5, 0.01% BRIJ-35, 10 mM MgCl2, 2 mM MnCl2, 1 mM EGTA, 1 mM DTT. After the 1 hour Kinase Reaction incubation, 5 μL of a 1:32768 dilution of Development Reagent A is added.
The Test Compounds are screened in 1% DMSO (final) in the well.
All Peptide/Kinase Mixtures are diluted to a 2×working concentration in the MNK1 Kinase Buffer.
All ATP Solutions are diluted to a 4×working concentration in Kinase Buffer (50 mM HEPES pH 7.5, 0.01% BRIJ-35, 10 mM MgCl2, 1 mM EGTA).
Development Reagent Solution:
The Development Reagent is diluted in Development Buffer
Bar-coded Corning, low volume NBS, 384-well plate (Corning Cat. #3676)
1. 2.5 μL—4×Test Compound
2. 5 μL—2×Peptide/Kinase Mixture
5. 60-minute Kinase Reaction incubation at room temperature
6. 5 μL—Development Reagent Solution
8. 60-minute Development Reaction incubation at room temperature
9. Read on fluorescence plate reader and analyze the data
The following equations are used for each set of data points:
Correction for Background Fluorescence: FISample−FITCFI Ctl Emission Ratio (using values corrected for background fluorescence):Coumarin Emission (445 nm)/Fluorescein Emission (520 nm)
% Phosphorylation (% Phos): 1−((Emission Ratio×F100%)−C100%)/((C0%−C100%)+[Emission Ratio×(F100%−F0%)])*100
% Inhibition: 1−(% PhosSample/% Phos0% Inhibition Ctl)*100 FI=Fluorescence Intensity C100%=Average Coumarin emission signal of the 100% Phos. Control C0%=Average Coumarin emission signal of the 0% Phos. Control F100%=Average Fluorescein emission signal of the 100% Phos. Control F0%=Average Fluorescein emission signal of the 0% Phos. Control
SelectScreen® Kinase Profiling Service uses XLfit from IDBS. The dose response curve is curve fit to model number 205 (sigmoidal dose-response model).

Assay [2] has as its target MNK2a (pre-activated GST-MNK2a) (Homo sapiens (Human), UniProt Q9HBH9). Put plainly: MNK2a in vitro kinase assay (assay 1), ADP-Glo. Format: biochemical. Particulars: read-out: Mnk2 IC50. The method, then:
A. MNK2a In Vitro Kinase Assay (Assay 1)
The inhibition of kinase activity of MNK2a was assessed using pre-activated GST-MNK2a. The white, 384-well OptiPlate F plates were purchased from PerkinElmer. The ADP-Glo Kinase Assay (including ultra pure ATP) was purchased from Promega (V9103). Activated MNK2a was obtained as described in WO2011/104340. […] ID No. 5 of WO 2011/104340 by the C-terminal —CONH2 group, was purchased from Thermo Fisher Scientific. All other materials were of highest grade commercially available. Compounds are tested in either serial dilutions or single dose concentrations. The compound stock solutions are 10 mM in 100% DMSO The serial compound dilutions are prepared in 100% DMSO followed by 1:27.3 intermediate dilution in assay buffer. The final DMSO concentration in assay will be <3%.
In the 384-well plates 3 μl of test compound from the intermediate dilution is mixed with 4 μl of the activated MNK2 enzyme (final concentration of 10 nM) and 4 μl of the peptide (final concentration of 25 μM)/ultra pure ATP (final concentration of 20 μM), all dissolved in assay buffer. This step is followed by an incubation time of 90 min, then 10 μl of ADP Glo reagent are added, followed by 40 min of incubation. Then 20 μl of kinase detection reagent are admixed. The plates are sealed and after an incubation period of 30 min, the luminescence signal is measured in an Envision reader to determine the amount of produced ADP. All incubation steps are performed at room temperature.
The assay buffer consists of 20 mM HEPES, 2 mM DTT, 0.01% BSA, 20 mM MgCl2 and 0.1% Pluronic F-127.
The luminescent signal generated is proportional to the ADP concentration produced and is correlated with activated MNK2 activity. The analysis of the data is performed by the calculation of the percentage of ATP consumption of activated MNK2 in the presence of the test compound compared to the consumption of ATP in the presence of activated MNK2 without compound. (RLU(sample)−RLU(low control))*100/(RLU(high value)−RLU(low control))
[RLU=Relative Luminescence Units]
Values of more than 100% CTL are normally related to compound/sample specific physico-chemical properties (e.g. solubility, light absorbance, fluorescence).
IC50 values based on dose response curves are calculated with the AssayExplorer software.

MNK2a (pre-activated GST-MNK2a), sequence (Q9HBH9 whole entry): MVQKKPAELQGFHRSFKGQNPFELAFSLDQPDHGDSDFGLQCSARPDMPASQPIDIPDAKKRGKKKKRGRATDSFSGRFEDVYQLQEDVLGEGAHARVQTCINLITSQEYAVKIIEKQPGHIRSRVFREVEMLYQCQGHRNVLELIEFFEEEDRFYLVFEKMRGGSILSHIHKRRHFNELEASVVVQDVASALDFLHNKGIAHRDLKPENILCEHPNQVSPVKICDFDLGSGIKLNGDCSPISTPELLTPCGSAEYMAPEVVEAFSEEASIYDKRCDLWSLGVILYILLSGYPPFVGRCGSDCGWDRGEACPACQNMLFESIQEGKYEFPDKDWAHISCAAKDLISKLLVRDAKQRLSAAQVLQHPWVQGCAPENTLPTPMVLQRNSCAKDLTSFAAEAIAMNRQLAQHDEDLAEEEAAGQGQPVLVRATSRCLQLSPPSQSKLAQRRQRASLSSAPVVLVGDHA
MNK1a (pre-activated GST-MNK1a), sequence (Q9BUB5 other isoform, or with tags, fused parts or gaps): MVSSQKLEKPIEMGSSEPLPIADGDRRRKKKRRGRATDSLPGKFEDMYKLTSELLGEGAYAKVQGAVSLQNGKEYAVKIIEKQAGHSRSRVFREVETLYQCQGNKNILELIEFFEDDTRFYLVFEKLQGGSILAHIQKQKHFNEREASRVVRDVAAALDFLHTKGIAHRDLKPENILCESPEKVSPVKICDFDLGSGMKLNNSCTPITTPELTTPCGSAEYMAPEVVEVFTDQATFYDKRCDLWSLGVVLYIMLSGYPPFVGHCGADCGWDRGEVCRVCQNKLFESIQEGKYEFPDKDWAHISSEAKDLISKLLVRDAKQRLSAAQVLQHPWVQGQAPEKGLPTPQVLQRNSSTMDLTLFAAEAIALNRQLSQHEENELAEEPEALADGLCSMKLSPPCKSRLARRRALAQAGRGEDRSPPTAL

Take `COc1c(N=S2(=O)CCC2)cc2ncnc(Nc3ccc(F)cc3O[C@@H]3CO[C@H]4[C@@H]3OC[C@H]4OC)c2c1Cl` [Example 2.18]: in assay [1], the inhibition at 1 µM came out at 95%. The half-maximal inhibitory concentration (IC50) in assay [2] is 1.3 nM.

On to `COc1c(N=S2(=O)CCCC2)cc2ncnc(Nc3ccc(F)cc3O[C@@H]3CO[C@@H]4CCO[C@@H]43)c2c1Cl` [Example 2.33], for which, in assay [1], the inhibition at 1 µM stood at 106%. In assay [2], the IC50 amounted to 1.6 nM.

Turning to `COc1c(N=S2(=O)CCCC2)cc2ncnc(Nc3ccc(F)cc3O[C@H](C)C(=O)N[C@@H](C)C(F)(F)F)c2c1C` [Example 2.05], the inhibition at 1 µM in assay [1] was 106%. Also, the IC50 in assay [2] was determined as 2.5 nM.

As to `COc1c(N=S2(=O)CCCC2)cc2ncnc(Nc3ccc(F)cc3O[C@H]3COC[C@@H]3O)c2c1C` [Example 2.46], the half-maximal inhibitory concentration (IC50) in assay [1] is 37 nM; in assay [2], 2 nM.

Consider `COc1c(N=S(C)(C)=O)cc2ncnc(Nc3ccc(F)cc3O[C@@H]3CO[C@@H]4CCO[C@@H]43)c2c1C` [Example 2.25], for which the half-maximal inhibitory concentration (IC50) in assay [1] is 18 nM; in assay [2], 0.8 nM.

On to `Cc1c(OCCCN2CCN(C)C(=O)C2)c(N=S(C)(C)=O)cc2ncnc(Nc3ccc(F)cc3O[C@H](C)C(F)(F)F)c12` [Example 1.01], for which the figures for the half-inhibitory concentration (IC50) in assay [1] and in assay [2] were 162 nM and 5.5 nM, respectively.

For `COc1c(N=S2(=O)CCCC2)cc2ncnc(Nc3ccc(F)cc3O[C@H](C)C(F)(F)F)c2c1C` [Example 2.54], the inhibition at 1 µM in assay [1] was 91%. In addition, the half-maximal inhibitory concentration (IC50) in assay [2] was determined as 1.6 nM.

As for `COc1c(N=S(C)(C)=O)cc2ncnc(Nc3ccc(F)cc3O[C@@H]3CO[C@H]4[C@@H]3OC[C@H]4OC)c2c1C` [Example 2.45], the concentration for half-maximal inhibition (IC50) in assay [1] turned out to be 17 nM; in assay [2], 1.7 nM.

As to `COc1c(N=S2(=O)CCC2)cc2ncnc(Nc3ccc(F)cc3O[C@H](C)C(F)(F)F)c2c1C` [Example 2.35], the IC50 turned out to be 74 nM in assay [1] and 1.5 nM in assay [2].

In the case of `COc1c(N=S(C)(C)=O)cc2ncnc(Nc3ccc(F)cc3O[C@H](C)C(F)(F)F)c2c1C` [Example 2.16], the inhibition at 1 µM in assay [1] was 102%. Moreover, the half-inhibitory concentration (IC50) in assay [2] worked out at 3.5 nM.

For `COc1c(N=S2(=O)CCCC2)cc2ncnc(Nc3ccc(F)cc3O[C@@H]3CO[C@H]4[C@@H]3OC[C@H]4OC)c2c1C` [Example 2.36], the concentration for half-maximal inhibition (IC50) in assay [1] stood at 15 nM; in assay [2] it was 1.8 nM.

For `Cc1c(OC(C)C)c(N=S(C)(C)=O)cc2ncnc(Nc3ccc(F)cc3O[C@H](C)C(F)(F)F)c12` [Example 3.03], the IC50 is 282 nM in assay [1] and 6.5 nM in assay [2].

`COc1c(N=S2(=O)CCC2)cc2ncnc(Nc3ccc(F)cc3O[C@@H]3CO[C@@H]4CCO[C@@H]43)c2c1Cl` [Example 2.59]: the inhibition at 1 µM in assay [1] is 108%. In assay [2], the 50% inhibitory concentration (IC50) amounted to 1.4 nM.

For `COc1c(N=S(C)(=O)C(C)(C)C)cc2ncnc(Nc3ccc(F)cc3O[C@@H]3CO[C@@H]4CCO[C@@H]43)c2c1C` (some centres unmarked) [Example 2.19], the inhibition at 1 µM in assay [1] came to 102%. For the same compound, the half-inhibitory concentration (IC50) in assay [2] was found to be 2.8 nM.

Regarding `CCOc1c(N=S(C)(C)=O)cc2ncnc(Nc3ccc(F)cc3O[C@H](C)C(F)(F)F)c2c1C` [Example 1.03], the 50% inhibitory concentration (IC50) in assay [1] was found to be 54 nM; in assay [2] it was 1.6 nM.

For the compound `COc1c(N=S(C)(C)=O)cc2ncnc(Nc3ccc(F)cc3OC3CCOCC3)c2c1Cl` [Example 2.34], the inhibition at 1 µM in assay [1] came to 94%. Also, the IC50 in assay [2] was determined as 2 nM.

`Cc1c(OC2CCOC2)c(N=S(C)(C)=O)cc2ncnc(Nc3ccc(F)cc3O[C@H](C)C(F)(F)F)c12` (some centres unmarked) [Example 3.04]: the IC50 in assay [1] is 118 nM; in assay [2], 2.1 nM.

Regarding `COc1c(N=S2(=O)CCCC2)cc2ncnc(Nc3ccc(F)cc3O[C@H](C)C(=O)NCC(F)(F)F)c2c1C` [Example 2.52], in assay [1], the inhibition at 1 µM came out at 100%. Further, the IC50 in assay [2] was 2.3 nM.

In the case of `COc1c(N=S2(=O)CC(OC)C2)cc2ncnc(Nc3ccc(F)cc3O[C@H](C)C(=O)NCC(F)(F)F)c2c1C` (some centres unmarked) [Example 2.01], the inhibition at 1 µM in assay [1] amounted to 103%. Also, the half-inhibitory concentration (IC50) in assay [2] amounted to 2.5 nM.

Take `COc1c(N=S2(=O)CCC2)cc2ncnc(Nc3ccc(F)cc3O[C@H]3CCOC3)c2c1C` [Example 2.57]: the IC50 worked out at 22 nM in assay [1] and 1.1 nM in assay [2].

In the case of `COc1c(N=S(C)(=O)CCO)cc2ncnc(Nc3ccc(F)cc3O[C@@H]3CO[C@@H]4CCO[C@@H]43)c2c1C` (some centres unmarked) [Example 2.23], in assay [1], the inhibition at 1 µM was 105%. The IC50 in assay [2] turned out to be 2 nM.

With `Cc1c(OCCCN2CCCC2)c(N=S(C)(C)=O)cc2ncnc(Nc3ccc(F)cc3O[C@H](C)C(F)(F)F)c12` [Example 1.02], the IC50 in assay [1] turned out to be 51 nM; in assay [2], 2.4 nM.

In the case of `Cc1c(OCCCN2CCOCC2)c(N=S2(=O)CCC2)cc2ncnc(Nc3ccc(F)cc3O[C@H](C)C(F)(F)F)c12` [Example 2.15], the half-maximal inhibitory concentration (IC50) in assay [1] was found to be 42 nM; in assay [2] it was 1.4 nM.

For the compound `COc1c(N=S(C)(C)=O)cc2ncnc(Nc3ccc(F)cc3O[C@@H]3CO[C@@H]4CCO[C@@H]43)c2c1Cl` [Example 2.40], the IC50 in assay [1] worked out at 16 nM; in assay [2], 1.3 nM.

`COc1c(N=S2(=O)CCC2)cc2ncnc(Nc3ccc(F)cc3O[C@H](C)C(=O)N[C@@H](C)C(F)(F)F)c2c1C` [Example 2.53]: the inhibition at 1 µM in assay [1] turned out to be 105%. Also, the IC50 in assay [2] stood at 1.6 nM.

As for `COc1c(N=S2(=O)CCCC2)cc2ncnc(Nc3cccnc3O[C@@H]3CO[C@@H]4CCO[C@@H]43)c2c1C` [Example 2.10], in assay [1], the inhibition at 1 µM came out at 96%. The IC50 in assay [2] came to 3.3 nM.

In the case of `COc1c(N=S(C)(C)=O)cc2ncnc(Nc3ccc(F)cc3O[C@H](C)C(=O)N[C@@H](C)C(F)(F)F)c2c1C` [Example 2.37], the inhibition at 1 µM in assay [1] was 88%. Besides, the half-maximal inhibitory concentration (IC50) in assay [2] is 4.1 nM.

On to `COc1c(N=S2(=O)CCC(O)CC2)cc2ncnc(Nc3ccc(F)cc3O[C@@H]3CO[C@@H]4CCO[C@@H]43)c2c1C` (some centres unmarked) [Example 2.04], for which the inhibition at 1 µM in assay [1] came out at 105%. Besides, the IC50 in assay [2] was found to be 1.2 nM.
